# Where a name gives a salt, the structure may show the parent alone. Active and inactive are the calls of the source.
# Key:
# Paired box protein Pax-8 = Paired box protein Pax-8 (Homo sapiens, UniProt Q06710); test: PAX8 transcriptional activity inhibition in RMG-I – RMG-I cells, luciferase, cherry-pick, dose response (AID 687027); format: functional, cell-based;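 also: luciferase reporter driven by Pax8 target thyroperoxidase promoter measured by SteadyGlo luminescence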
# [1] = OVCAR-3 cell viability loss – plate reader, dry powder samples, PAX8 inhibitor project, dose response (AID 743044); format: functional, cell-based
# [2] = toxicity to HepG2 liver cells – cell-based, plate reader, dry powder, set 6, cytotoxicity control, dose response (AID 743311); format: functional
# [3] = toxicity to A549 lung cells – cell-based, plate reader, dry powder, set 6, cytotoxicity control, dose response (AID 743312); format: functional
# [4] = loss of HEK293T viability via ATP – cell-based, plate reader, dry powder, set 10, cytotoxicity control, dose response (AID 743315); format: functional; conditions: HEK293
# cells = conditions: HEK293
# [5] = CellTiter-Glo luminescence survival assay, SW480 colon tumor line, concentration-response curve, half-maximal inhibitory concentration (AID 1117338); format: functional
# [6] = RKO cell viability reduction, dose response, CellTiter-Glo luminescence (AID 1117322); format: functional
# [7] = cytotoxicity toward HCT116 cells – cell-based, CellTiter-Glo luminescence, IC50, dose response (AID 1117332); format: functional; conditions: HCT-116
# [8] = SNU-C1 cell viability reduction, dose response, CellTiter-Glo luminescence (AID 1117323); format: functional, cell-based
# [9] = cytotoxicity toward Colo320 cells – cell-based, CellTiter-Glo luminescence, IC50, dose response (AID 1117334); format: functional; conditions: COLO 320
# [10] = cytotoxicity toward HT-29 cells – cell-based, CellTiter-Glo luminescence, IC50, dose response (AID 1117330); format: functional
# [11] = Reduced DLD-1 viability, concentration-response, CellTiter-Glo luminescence (AID 1117352); format: functional
# [12] = target: T1, Methionyl-tRNA synthetase, putative (Trypanosoma brucei brucei, UniProt Q38C91); format: functional, Trypanosoma brucei brucei strain 927/4 GUTat10.1
# T1 sequence (Q38C91 whole entry): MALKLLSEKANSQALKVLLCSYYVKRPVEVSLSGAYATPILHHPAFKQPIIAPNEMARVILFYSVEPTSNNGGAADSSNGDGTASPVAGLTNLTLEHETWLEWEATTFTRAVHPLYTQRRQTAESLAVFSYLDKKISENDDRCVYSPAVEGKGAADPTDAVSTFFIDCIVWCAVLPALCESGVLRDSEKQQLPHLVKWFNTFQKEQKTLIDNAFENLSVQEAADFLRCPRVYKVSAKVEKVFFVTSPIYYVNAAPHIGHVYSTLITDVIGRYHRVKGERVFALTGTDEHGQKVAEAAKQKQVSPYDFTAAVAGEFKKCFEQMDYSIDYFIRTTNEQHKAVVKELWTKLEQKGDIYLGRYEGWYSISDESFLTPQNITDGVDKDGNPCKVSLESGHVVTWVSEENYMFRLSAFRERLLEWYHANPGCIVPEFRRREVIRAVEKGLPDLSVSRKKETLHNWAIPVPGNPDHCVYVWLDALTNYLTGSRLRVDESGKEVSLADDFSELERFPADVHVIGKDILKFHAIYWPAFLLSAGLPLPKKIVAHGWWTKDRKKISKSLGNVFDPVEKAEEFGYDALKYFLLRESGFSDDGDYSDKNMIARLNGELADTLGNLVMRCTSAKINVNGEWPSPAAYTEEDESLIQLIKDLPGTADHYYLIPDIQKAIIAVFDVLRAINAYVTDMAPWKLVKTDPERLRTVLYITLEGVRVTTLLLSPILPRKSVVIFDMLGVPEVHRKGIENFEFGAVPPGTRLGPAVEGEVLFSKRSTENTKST
# [13] = Counterscreen for inhibitors of Trypanosoma brucei methionyl tRNA synthetase (MetRS): Luminescence-based cell-based high throughput dose response assay to identify compounds that are cytotoxic to Jurkat human T lymphocyte cells.; format: functional
# [14] = target: T1, Methionyl-tRNA synthetase, putative; format: functional, Trypanosoma brucei brucei strain 927/4 GUTat10.1; remark: listed apart in the source
# [15] = Late stage counterscreen for inhibitors of Trypanosoma brucei methionyl tRNA synthetase (MetRS): Luminescence-based cell-based high throughput dose response assay to identify compounds that are cytotoxic to Jurkat human T lymphocyte cells.; format: functional
# [16] = target: DNA dC->dU-editing enzyme APOBEC-3A (Homo sapiens, UniProt P31941); test: A3A deaminase inhibition for selectivity – biochemical, dose response (AID 504722); format: functional
# Sequence of DNA dC->dU-editing enzyme APOBEC-3A (P31941 whole entry): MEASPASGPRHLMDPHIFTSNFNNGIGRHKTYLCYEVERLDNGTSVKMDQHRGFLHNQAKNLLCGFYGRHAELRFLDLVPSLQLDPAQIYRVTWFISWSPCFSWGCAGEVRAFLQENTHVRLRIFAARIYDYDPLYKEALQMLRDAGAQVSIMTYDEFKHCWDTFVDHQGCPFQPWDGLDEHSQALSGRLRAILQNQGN
# [17] = target: Eukaryotic translation initiation factor 4E (Mus musculus, UniProt P63073); test: blockers of eIF4G binding by eIF4E – biochemical, TR-FRET, dose response (AID 855); format: functional;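 also: potency for disrupting eIF4E binding to eIF4GI seen as loss of FRET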
# Sequence of Eukaryotic translation initiation factor 4E (P63073 whole entry): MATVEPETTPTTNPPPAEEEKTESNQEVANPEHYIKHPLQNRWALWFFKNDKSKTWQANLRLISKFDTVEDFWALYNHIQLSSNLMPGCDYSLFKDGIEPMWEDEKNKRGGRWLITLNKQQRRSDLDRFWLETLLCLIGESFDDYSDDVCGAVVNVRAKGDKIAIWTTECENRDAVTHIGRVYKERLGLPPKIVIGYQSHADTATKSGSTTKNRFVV
# [18] = target: DNA dC->dU-editing enzyme APOBEC-3G (Homo sapiens, UniProt Q9HC16); test: Dose Response confirmation of small molecule APOBEC3G DNA Deaminase Inhibitors via a fluorescence-based single-stranded DNA deaminase assay. [Related pubchem assays (depositor defined):AID493012, AID493028]; format: functional
# Sequence of DNA dC->dU-editing enzyme APOBEC-3G (Q9HC16 whole entry, the tested form may be a part): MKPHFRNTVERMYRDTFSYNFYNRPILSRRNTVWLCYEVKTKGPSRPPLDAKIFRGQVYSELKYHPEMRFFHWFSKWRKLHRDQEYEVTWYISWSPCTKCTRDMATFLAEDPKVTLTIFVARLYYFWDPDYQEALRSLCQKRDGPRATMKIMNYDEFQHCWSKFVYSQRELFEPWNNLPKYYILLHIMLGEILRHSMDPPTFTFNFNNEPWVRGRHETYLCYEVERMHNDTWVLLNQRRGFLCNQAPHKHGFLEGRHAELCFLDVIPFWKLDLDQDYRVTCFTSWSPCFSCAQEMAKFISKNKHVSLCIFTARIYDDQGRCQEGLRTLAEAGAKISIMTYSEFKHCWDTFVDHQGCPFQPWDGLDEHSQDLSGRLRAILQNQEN
# [19] = target: T2, Carboxy-terminal domain RNA polymerase II polypeptide A small phosphatase 1 (Homo sapiens, UniProt Q9GZU7); test: CTDSP1 inhibitors, concentration-response, biochemical, absorbance readout, ultra-high-throughput screen actives (AID 540297); format: functional
# T2 sequence (Q9GZU7 whole entry): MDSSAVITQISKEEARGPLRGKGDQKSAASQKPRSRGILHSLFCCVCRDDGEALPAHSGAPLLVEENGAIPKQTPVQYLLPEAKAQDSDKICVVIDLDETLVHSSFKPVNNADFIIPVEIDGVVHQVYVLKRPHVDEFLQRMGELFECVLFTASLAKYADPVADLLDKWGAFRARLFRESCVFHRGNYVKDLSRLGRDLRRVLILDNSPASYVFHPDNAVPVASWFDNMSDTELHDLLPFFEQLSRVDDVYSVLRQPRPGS
# [20] = target: DNA (cytosine-5)-methyltransferase 1 (Homo sapiens, UniProt P26358); test: inhibition of DNA methylation by DNMT1 – biochemical, fluorescent molecular beacon, confirmation (AID 602386); format: functional
# Sequence of DNA (cytosine-5)-methyltransferase 1 (P26358 whole entry): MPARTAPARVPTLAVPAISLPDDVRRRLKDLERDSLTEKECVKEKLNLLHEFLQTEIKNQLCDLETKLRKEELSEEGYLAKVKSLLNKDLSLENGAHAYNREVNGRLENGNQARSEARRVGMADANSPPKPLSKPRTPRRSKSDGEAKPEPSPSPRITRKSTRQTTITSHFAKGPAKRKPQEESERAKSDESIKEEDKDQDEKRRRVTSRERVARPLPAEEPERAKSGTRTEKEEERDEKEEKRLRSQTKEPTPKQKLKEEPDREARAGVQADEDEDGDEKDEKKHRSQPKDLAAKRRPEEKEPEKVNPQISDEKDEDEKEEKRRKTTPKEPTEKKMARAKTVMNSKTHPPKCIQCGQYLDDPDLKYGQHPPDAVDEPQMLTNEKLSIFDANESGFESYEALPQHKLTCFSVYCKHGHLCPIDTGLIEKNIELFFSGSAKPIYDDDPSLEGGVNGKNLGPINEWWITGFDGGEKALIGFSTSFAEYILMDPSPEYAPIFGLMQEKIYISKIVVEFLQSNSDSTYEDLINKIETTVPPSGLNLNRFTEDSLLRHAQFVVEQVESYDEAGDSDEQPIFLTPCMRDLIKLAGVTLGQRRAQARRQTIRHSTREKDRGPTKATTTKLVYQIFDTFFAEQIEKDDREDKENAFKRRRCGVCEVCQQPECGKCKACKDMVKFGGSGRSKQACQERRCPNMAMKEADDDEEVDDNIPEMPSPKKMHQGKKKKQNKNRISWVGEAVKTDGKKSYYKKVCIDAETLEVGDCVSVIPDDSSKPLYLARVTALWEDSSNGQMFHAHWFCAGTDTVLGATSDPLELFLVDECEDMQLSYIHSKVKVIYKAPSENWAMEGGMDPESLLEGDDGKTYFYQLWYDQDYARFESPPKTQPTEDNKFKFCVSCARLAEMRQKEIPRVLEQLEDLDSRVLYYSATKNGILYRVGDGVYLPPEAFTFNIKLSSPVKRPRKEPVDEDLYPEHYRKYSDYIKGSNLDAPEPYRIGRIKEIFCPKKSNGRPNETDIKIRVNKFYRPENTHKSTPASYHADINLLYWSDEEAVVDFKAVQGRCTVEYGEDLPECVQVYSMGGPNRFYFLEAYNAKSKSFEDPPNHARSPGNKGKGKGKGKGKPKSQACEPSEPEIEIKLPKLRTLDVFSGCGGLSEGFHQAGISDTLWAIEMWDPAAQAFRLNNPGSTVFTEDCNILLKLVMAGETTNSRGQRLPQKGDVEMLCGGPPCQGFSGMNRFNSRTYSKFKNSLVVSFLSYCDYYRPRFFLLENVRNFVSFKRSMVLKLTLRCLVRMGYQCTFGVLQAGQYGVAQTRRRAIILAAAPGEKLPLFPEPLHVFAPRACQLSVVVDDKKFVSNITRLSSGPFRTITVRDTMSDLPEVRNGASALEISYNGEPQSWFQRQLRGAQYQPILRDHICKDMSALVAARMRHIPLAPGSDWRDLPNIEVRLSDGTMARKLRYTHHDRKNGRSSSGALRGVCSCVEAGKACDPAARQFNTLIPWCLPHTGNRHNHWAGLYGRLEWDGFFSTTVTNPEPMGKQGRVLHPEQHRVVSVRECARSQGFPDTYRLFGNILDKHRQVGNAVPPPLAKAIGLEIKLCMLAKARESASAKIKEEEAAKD
# [21] = target: 26S proteasome non-ATPase regulatory subunit 14 (Homo sapiens, UniProt O00487); test: inhibition of proteasome subunit RPN11 – biochemical, fluorescence polarization, uHTS hits, confirmation (AID 602368); format: functional
# Sequence of 26S proteasome non-ATPase regulatory subunit 14 (O00487 whole entry): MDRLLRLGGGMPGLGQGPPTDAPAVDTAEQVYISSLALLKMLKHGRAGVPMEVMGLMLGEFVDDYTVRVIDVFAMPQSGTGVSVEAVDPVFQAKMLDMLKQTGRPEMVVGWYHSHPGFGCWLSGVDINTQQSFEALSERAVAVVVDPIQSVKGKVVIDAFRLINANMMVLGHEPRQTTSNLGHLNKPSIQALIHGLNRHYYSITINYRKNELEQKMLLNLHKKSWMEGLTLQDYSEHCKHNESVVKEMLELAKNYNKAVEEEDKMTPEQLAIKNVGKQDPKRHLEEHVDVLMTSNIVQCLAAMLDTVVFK
# [22] = target: 72 kDa type IV collagenase (Homo sapiens, UniProt P08253); test: Dose Response validation of uHTS RPN11 inhibitor hits using a MMP-2 Fluorescence assay.; format: functional
# Sequence of 72 kDa type IV collagenase (P08253 whole entry): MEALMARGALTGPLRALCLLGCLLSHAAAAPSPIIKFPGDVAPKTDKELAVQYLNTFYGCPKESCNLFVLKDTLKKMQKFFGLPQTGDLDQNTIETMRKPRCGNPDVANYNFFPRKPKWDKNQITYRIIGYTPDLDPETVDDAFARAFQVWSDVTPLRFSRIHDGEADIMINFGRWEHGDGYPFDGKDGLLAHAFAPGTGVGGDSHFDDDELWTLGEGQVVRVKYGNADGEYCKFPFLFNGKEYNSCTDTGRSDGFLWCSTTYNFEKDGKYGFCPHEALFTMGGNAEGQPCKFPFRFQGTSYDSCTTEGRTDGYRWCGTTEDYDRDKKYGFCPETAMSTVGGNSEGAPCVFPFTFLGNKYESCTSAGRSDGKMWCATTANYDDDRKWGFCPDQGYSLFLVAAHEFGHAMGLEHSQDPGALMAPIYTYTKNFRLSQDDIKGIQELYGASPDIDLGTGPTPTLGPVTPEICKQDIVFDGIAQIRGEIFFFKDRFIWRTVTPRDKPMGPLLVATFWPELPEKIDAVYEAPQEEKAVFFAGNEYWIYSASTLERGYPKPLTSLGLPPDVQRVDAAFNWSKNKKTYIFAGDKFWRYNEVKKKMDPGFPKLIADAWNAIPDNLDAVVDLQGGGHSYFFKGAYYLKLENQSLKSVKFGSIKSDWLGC
# Prothrombin = Prothrombin (Bos taurus, UniProt P00735); test: thrombin protease inhibitors – biochemical, fluorescence polarization, uHTS hits, dose response (AID 602369); format: functional
# [23] = target: E3 ubiquitin-protein ligase UHRF1 (Homo sapiens, UniProt Q96T88); test: Counterscreen for inhibitors of 5-meCpG-binding domain protein 2 (MBD2): TRFRET-based biochemical high throughput dose response assay to identify inhibitors of binding of ubiquitin-like with PHD and ring finger domains 1 (UHRF1) to methylated oligonucleotide.
# Sequence of E3 ubiquitin-protein ligase UHRF1 (Q96T88 whole entry, the tested form may be a part): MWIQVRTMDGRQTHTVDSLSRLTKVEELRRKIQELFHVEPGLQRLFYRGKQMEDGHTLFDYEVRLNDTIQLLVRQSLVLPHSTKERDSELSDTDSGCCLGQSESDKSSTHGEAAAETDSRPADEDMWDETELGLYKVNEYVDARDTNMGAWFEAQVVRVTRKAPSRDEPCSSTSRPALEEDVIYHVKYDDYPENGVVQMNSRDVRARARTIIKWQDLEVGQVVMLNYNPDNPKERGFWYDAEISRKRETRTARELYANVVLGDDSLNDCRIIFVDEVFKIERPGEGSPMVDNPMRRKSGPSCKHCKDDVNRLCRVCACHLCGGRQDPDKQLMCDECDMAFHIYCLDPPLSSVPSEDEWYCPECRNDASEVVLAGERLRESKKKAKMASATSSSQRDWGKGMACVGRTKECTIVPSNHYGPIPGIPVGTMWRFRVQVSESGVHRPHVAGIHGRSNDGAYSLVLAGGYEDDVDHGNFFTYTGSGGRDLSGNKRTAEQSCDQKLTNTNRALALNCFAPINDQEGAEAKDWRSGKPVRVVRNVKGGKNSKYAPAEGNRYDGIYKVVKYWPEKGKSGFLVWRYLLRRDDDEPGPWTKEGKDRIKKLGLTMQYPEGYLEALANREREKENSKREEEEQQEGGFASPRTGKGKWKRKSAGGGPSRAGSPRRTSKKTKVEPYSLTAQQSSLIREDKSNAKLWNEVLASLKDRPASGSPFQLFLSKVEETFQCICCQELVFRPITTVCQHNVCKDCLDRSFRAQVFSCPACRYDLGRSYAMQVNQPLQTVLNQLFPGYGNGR
# [24] = growth inhibition of yeast DHODH-expressing 3D7 parasites – SYBR Green, dry powder samples, dose response (AID 1159570); format: functional, cell-based;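 also: parasite growth measured after 72 hours of compound exposure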
# [25] = toxicity to human HepG2 hepatoma cells – cell-based, plate reader, dry powder samples, cytotoxicity control, dose response (AID 1159569); format: functional;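 also: inhibitor potency with signal falling toward the positive control level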
# [26] = Dd2 malaria parasite growth inhibition potency – SYBR Green, dry powder samples, dose response (AID 1159566); format: functional, cell-based;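 also: potency for growth inhibition with lower SYBR green DNA signal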
# [27] = growth inhibition of PfATP4-mutant resistant parasites – NITD609-resistant line, SYBR Green, dry powder, dose response (AID 1159571); format: functional, cell-based;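 also: parasites synchronized at ring stage by sorbitol before testing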
# [28] = reduced cellular PGC1a acetyl-lysine signal – cell-based, cherry-picked samples, dose response (AID 720514); format: functional;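 also: potency may reflect raised or lowered acetylation signal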
# [29] = luciferase reporter signal suppression in cells – H4 neuroglioma cells, luminescence, dose response (AID 1990); format: functional, cell-based
# BJ [30] = test: BJ-TERT fibroblast viability loss – cell-based, RAS-independent, luminescence, dose response (AID 1933); format: functional; conditions: Homo sapiens
# [31] = Luminescence Cell-Based Dose Response HTS to Identify Inhibitors of 5'UTR Stem-Loop Driven Prion Protein mRNA Translation in H4 Neuroglioblastoma Cells. [Related pubchem assays: 1827 (Project Summary), 1813 (Primary HTS)]; format: functional
# [32] = alpha-synuclein stem-loop luciferase translation blockers – H4 neuroglioma cells, luminescence, confirmation (AID 1988); format: functional, cell-based
# BJ [33] = test: cells; format: functional, cell-based; conditions: Homo sapiens
# BJ [34] = test: BJ-TERT-LT-ST fibroblast viability loss – cell-based, RAS-independent, luminescence, dose response (AID 1935); format: functional; conditions: Homo sapiens;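 also: BJ fibroblasts immortalized with TERT plus LT and ST oncogenes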
# [35] = DRD fibroblast viability loss – cell-based, non-viral oncogenic, luminescence, dose response (AID 1934); format: functional; conditions: Homo sapiens
# [36] = HEK-293T viability loss after treatment – luminescence, T-cell screen hits, cytotoxicity control for TCR NF-kB inhibitor project, dose response (AID 489026); format: functional, cell-based;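 also: cells exposed to compound about 14 hours before the viability readout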
# [37] = toxicity toward HEK293 cells – cell-based, dry powder samples, cytotoxicity control, dose response (AID 720567); format: functional
# Sequence of Paired box protein Pax-8 (Q06710 whole entry): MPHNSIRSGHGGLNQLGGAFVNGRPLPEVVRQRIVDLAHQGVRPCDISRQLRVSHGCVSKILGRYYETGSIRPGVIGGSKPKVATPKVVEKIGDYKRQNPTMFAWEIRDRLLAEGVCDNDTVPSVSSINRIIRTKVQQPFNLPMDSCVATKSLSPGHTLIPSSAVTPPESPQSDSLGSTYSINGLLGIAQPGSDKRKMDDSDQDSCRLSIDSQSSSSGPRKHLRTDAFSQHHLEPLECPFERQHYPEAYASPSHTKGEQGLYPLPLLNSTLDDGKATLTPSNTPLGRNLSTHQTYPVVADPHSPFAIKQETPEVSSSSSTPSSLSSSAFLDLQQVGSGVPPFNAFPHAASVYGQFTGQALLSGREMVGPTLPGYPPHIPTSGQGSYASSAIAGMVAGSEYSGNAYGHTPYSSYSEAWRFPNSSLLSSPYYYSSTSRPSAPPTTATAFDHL
smiles,measurement,setting,value
C[C@@H]1CN([C@H](C)CO)S(=O)(=O)c2ccc(C#Cc3ccc(F)cc3)cc2O[C@H]1CN(C)C(=O)NC1CCCCC1,AC50,Paired box protein Pax-8,9.47 µM (active)
same,AC50,[1],48.1 µM (active)
Cc1cccc(OCCn2c(S)nc3cc(F)ccc32)c1,AC50,[2],44.9 µM (active)
same,AC50,[3],23.4 µM (active)
same,AC50,[4],> 52 µM (inactive)
same,AC50,cells,> 52 µM (inactive)
Cc1cccc(Cc2c[nH]cn2)c1C [DETOMIDINE HYDROCHLORIDE],IC50,[5],> 20 µM (inactive)
same,IC50,[6],> 20 µM (inactive)
same,IC50,[7],> 20 µM (inactive)
same,IC50,[8],> 20 µM (inactive)
same,IC50,[9],> 20 µM (inactive)
same,IC50,[10],> 20 µM (inactive)
same,IC50,[11],> 20 µM (inactive)
O=C1[C@@H]2Cc3c([nH]c4ccccc34)C(c3cccc([N+](=O)[O-])c3)N2C(=O)CN1CCCO (stereo not given in full),IC50,[12],0.911 µM (active)
same,IC50,[13],83.3 µM (inactive)
same,IC50,[14],0.528 µM (active)
same,IC50,[15],> 83.3 µM (inactive)
Cc1c2cnn(CC(=O)Nc3c(F)c(F)cc(F)c3F)c(=O)c2c(C)n1Cc1ccccc1F,IC50,[16],49.3 µM (active)
same,IC50,[17],50 µM (inactive)
same,IC50,[18],9.31 µM (active)
same,IC50,[19],2.96 µM (active)
same,IC50,[20],7.6 µM (active)
same,IC50,[21],19.5 µM (active)
same,IC50,[22],> 100 µM (inactive)
same,IC50,Prothrombin,50.5 µM (active)
same,IC50,[23],> 43.8 µM (inactive)
C[C@H]1CN([C@@H](C)CO)C(=O)c2c(c3ccccc3n2C)-c2ccccc2CO[C@H]1CN(C)S(=O)(=O)c1ccc(F)cc1,AC50,[24],0.819 µM (active)
same,AC50,[25],50.9 µM (active)
same,AC50,[26],0.47 µM (active)
same,AC50,[27],1.05 µM (active)
C[C@H](CO)N1C[C@H](C)[C@@H](CN(C)CC2CCOCC2)Oc2ncc(Br)cc2C1=O,AC50,[28],36.4 µM (active)
CCCOC(=O)c1[nH]c2c(c1C)C(=O)CC(c1cccs1)C2 (stereo not given),EC50,[29],0.391 µM (active)
same,EC50,BJ [30],0.567 µM (active)
same,EC50,[31],1.01 µM (active)
same,EC50,[32],0.167 µM (active)
same,EC50,BJ [33],1.82 µM (active)
same,EC50,BJ [34],0.399 µM (active)
same,EC50,[35],0.615 µM (active)
same,IC50,[36],> 80 µM (inactive)
same,AC50,[37],0.594 µM (active)
